For experiment [1], the target named is Ba/F3(EGFR^L858R/T790M/C797S) cells (Homo sapiens, UniProt P00533, T790M/C797S/L858R, cells depend on it). Kind of experiment: Assay of activity on Ba/F3 cells (CTG, 72 h). Type of experiment: cell-based. The following applies: read-out: IC50 (nM) Ba/F3 (EGFR^L858R/T790M/C797S). The gist of the method:
(§1)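 Ba/F3 cells dependent on each EGFR triple mutant were exposed to 3-fold compound dilutions for 72 h at 37° C, 5% CO2, with CellTiter-Glo luminescence as the read-out.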

The target of experiment [2] is EGFR^L858R/T790M/C797S (Homo sapiens, UniProt P00533, C797S/L858R/T790M). In words: EGFR inhibitory activity assay (TK-substrate-biotin/ATP, 665/615 ratio). It counts as biochemical. The following applies: kinase inhibition. Here is the method:
EGFR Inhibitory Activity Assay
(1) A compound stock solution was prepared and diluted 3× to obtain a compound dilution; 10 nL of the compound dilution was transferred to a 384-well plate (784075, Greiner) by Echo 550;
(2) The plate was sealed, and centrifuged at 1,000 g for 1 min;
(4) 5 μl of the 2×EGFR protein working solution was added to the 384-well plate from step (2), centrifuged at 1,000 g for 30 s, and allowed to stand at room temperature (mixed thoroughly) for 10 min;
(6) 5 µL of the TK-substrate-biotin and ATP (the mixture prepared in step (5)) was added to the 384-well plate from step (4) to initiate the reaction;
(7) The mixture was centrifuged at 1,000 g for 30 s; the plate was sealed, and allowed to stand (and reacted) at room temperature for 40 min;
(8) 4×Sa-XL 665 and TK-antibody-Cryptate were prepared with detection buffer;
(9) 5 µL of the Sa-XL 665 and 5 µL of the TK-antibody-Cryptate were added successively to the 384-well plate from step (7);
(10) The mixture was centrifuged at 1,000 g for 30 s, and allowed to stand (reacted) at room temperature for 1 h;
(11) The fluorescence values were read at 615 nm and 665 nm by enzyme labeling instrument (PerkinElmer, 74785).
The ratio (665/615) of each well was calculated.
Formula of inhibition rate (%): […]
Ratiocmpd: Ratio (665/615) value of assay compound.
Ratiopositive: Average ratio (665/615) value of positive control.
Ratiovehicle: Average ratio (665/615) value of negative control.
(§2) The nonlinear regression curve (dose response-variable slope) between the value of inhibition rate (%) and the logarithm of compound concentration was fitted with graphpad prism 8.0, the effect dose curve of compound was drawn, and the IC50 value was calculated.

Experiment [3] deals with Ba/F3(EGFR^Del19/T790M/C797S) cells (Homo sapiens, UniProt P00533, DEL746-750/T790M/C797S, cells depend on it). In words: Assay of activity on Ba/F3 cells (CTG, 72 h). Type of experiment: cell-based. The following applies: read-out: IC50 (nM) Ba/F3 (EGFR^Del19/T790M/C797S). In a few lines:
as §1

Experiment [4] has as its target T1, Ba/F3(EML4-ALK) cells (Homo sapiens, UniProt Q9UM73).
T1 construct: fused on or other part: Q9HC35 (Echinoderm microtubule-associated protein-like 4)
In words: Assay of activity on Ba/F3(EML4-ALK) cells (CTG, 72 h). Type of experiment: cell-based. The following applies: read-out: IC50 (nM) Ba/F3(EML4-ALK). As to the method:
Assay of activity on Ba/F3(EML4-ALK) cells
(1) Ba/F3(EML4-ALK) cells were cultured according to the requirements of ATCC, incubated in an incubator at 37° C. and 5% CO2, and analyzed by index; cells with viability of >90% can be used in the assay, and cells were seeded in a 384-well plate (PerkinElmer, 6007680) with 700 cells/well, 30 μl/well.
(2) A compound stock solution was prepared, and diluted 3× to obtain a compound dilution; 30 nL of the serial dilution was added to a 384-well plate (784075, Greiner) by Echo 550, and cells were incubated in an incubator at 37° C. and 5% CO2 for 72 h.
(3) 30 μL of CTG was added to each well, and the 384-well plate was shaken on a Plate shaker (QILINBEIER, QB-9002); the 384-well plate was incubated in the dark at 37° C. and 5% CO2 for 30 min, and the chemiluminescence value was read by Envision (PerkinElmer, EnVision 2104).
The percent inhibition rate (% inhibition) was calculated by the formula below
LUMcmpd: Luminescence value of assay compound.
LUMpositive: Average LUM value of positive drug at a concentration of 10 μM.
LUM^vehicle: Average LUM value of negative control group without drug treatment.
as §2
Y=Bottom+(Top−Bottom)/(1+10^((LogIC50−X)*HillSlope))
X-axis: logarithm of compound concentration; Y axis: inhibition rate (% inhibition).

Molecules are shown by their SMILES.

The term IC50 denotes the midpoint of a concentration-inhibition curve.

T1 sequence (Q9UM73 whole entry, change not shown, the tested form may be a part): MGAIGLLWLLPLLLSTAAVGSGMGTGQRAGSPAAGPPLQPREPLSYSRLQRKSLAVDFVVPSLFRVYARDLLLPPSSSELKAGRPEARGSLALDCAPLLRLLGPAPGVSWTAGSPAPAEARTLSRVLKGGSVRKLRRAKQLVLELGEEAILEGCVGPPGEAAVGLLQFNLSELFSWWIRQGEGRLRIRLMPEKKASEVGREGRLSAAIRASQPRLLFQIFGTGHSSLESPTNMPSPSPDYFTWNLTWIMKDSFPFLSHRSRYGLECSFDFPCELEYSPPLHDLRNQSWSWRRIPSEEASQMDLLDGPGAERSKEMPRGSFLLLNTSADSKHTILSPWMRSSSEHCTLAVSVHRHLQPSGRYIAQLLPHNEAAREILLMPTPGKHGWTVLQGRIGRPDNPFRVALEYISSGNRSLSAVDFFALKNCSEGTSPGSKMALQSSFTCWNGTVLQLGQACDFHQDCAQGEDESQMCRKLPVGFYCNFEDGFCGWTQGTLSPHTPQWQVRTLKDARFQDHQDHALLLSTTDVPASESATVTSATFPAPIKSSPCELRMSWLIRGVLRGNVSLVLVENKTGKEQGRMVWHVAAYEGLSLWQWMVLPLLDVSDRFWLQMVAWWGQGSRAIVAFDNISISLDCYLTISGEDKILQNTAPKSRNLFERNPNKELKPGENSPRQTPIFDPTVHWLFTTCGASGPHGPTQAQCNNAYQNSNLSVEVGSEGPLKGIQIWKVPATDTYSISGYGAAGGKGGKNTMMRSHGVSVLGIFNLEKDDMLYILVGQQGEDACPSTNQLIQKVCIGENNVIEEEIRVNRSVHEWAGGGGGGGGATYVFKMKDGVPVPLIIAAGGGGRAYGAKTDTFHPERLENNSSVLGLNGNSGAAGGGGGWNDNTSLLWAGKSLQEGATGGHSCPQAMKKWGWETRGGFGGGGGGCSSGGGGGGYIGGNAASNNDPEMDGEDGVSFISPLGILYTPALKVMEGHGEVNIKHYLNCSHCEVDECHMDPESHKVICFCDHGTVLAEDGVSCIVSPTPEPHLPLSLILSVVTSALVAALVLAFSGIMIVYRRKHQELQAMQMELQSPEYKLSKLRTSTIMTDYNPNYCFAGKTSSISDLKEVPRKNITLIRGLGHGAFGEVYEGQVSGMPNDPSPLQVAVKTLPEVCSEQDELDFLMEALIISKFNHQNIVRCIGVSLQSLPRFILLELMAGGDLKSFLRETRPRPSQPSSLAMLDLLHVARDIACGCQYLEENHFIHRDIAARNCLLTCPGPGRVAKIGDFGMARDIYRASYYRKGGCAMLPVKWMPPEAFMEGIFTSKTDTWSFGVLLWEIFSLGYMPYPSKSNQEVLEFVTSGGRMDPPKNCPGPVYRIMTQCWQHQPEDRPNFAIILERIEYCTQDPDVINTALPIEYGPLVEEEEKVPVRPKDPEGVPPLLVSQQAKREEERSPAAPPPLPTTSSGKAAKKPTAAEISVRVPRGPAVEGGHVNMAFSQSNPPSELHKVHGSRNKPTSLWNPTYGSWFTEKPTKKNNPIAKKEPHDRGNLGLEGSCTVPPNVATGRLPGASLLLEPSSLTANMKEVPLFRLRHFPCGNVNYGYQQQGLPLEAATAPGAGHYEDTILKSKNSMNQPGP
Ba/F3(EGFR^Del19/T790M/C797S) cells, sequence (P00533 with tags, fused parts or gaps DEL746-750/T790M/C797S): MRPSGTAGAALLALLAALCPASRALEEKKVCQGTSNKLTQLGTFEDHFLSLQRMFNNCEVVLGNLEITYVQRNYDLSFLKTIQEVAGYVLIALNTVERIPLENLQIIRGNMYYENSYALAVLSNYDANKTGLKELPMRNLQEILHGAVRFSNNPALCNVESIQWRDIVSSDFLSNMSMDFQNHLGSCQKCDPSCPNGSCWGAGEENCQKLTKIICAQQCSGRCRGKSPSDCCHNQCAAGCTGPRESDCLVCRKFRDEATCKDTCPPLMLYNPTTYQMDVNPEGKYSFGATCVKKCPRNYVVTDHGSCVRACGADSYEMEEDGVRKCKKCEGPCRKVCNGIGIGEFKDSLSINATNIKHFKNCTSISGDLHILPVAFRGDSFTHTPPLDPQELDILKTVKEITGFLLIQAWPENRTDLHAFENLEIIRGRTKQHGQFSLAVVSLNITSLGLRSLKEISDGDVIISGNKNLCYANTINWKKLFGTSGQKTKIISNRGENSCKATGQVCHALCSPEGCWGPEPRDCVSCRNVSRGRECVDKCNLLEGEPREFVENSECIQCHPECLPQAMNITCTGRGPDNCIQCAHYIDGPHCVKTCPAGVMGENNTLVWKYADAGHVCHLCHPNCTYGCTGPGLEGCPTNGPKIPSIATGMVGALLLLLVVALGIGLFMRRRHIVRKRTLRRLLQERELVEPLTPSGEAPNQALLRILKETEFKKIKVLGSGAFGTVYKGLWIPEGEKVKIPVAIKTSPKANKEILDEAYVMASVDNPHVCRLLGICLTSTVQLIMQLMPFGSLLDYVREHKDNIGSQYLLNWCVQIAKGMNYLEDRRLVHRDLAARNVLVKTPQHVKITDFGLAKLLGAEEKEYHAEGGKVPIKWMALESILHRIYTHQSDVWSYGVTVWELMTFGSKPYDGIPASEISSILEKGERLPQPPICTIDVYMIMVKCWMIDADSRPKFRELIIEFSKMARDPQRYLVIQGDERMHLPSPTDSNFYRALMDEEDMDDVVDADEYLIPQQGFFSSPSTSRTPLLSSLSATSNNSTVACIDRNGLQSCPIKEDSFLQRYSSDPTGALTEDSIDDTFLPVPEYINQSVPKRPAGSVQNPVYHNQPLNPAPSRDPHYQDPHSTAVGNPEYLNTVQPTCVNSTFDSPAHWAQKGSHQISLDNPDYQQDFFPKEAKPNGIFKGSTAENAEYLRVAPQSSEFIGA
Ba/F3(EGFR^L858R/T790M/C797S) cells, sequence (P00533 whole entry T790M/C797S/L858R): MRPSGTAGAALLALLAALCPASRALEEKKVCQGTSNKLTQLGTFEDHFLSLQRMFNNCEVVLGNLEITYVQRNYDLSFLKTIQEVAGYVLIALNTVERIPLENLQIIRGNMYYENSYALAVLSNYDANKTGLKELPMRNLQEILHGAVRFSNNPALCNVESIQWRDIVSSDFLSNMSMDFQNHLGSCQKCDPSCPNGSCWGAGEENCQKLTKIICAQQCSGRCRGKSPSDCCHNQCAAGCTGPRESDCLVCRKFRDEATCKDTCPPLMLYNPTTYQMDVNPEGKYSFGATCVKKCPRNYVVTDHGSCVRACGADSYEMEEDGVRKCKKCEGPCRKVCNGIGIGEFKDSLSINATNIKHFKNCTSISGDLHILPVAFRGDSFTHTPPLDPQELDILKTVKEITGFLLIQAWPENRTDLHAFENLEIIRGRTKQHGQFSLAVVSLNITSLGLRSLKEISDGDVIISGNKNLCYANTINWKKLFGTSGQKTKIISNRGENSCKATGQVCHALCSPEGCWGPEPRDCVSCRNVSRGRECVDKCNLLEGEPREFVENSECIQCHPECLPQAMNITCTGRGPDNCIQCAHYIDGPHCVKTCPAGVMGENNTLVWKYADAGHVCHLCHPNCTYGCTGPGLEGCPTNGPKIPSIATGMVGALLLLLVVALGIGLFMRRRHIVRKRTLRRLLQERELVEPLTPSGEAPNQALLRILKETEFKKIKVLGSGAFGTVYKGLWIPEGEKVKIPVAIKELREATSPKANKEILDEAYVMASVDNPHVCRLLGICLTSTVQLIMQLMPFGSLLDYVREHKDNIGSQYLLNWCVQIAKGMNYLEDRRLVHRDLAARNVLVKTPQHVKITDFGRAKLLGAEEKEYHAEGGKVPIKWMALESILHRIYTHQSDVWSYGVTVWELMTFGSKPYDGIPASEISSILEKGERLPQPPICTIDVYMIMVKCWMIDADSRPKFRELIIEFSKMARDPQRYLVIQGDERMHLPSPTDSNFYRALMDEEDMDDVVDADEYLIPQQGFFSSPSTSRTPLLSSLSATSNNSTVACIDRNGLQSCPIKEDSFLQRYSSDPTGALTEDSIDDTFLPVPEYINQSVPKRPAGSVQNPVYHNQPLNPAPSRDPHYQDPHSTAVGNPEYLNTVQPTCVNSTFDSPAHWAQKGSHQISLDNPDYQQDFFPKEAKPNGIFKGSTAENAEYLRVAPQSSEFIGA

`COc1cc(N2CCC(N3CCN(CCCCCC#Cc4cccc5c4C(=O)N(C4CCC(=O)NC4=O)C5=O)CC3)CC2)ccc1Nc1ncc(Cl)c(Nc2ccccc2P(C)(C)=O)n1` (centres unmarked) [Compound C148, 4-(7-(4-(1-(4-((5-chloro-4-((2-(dimethylphosphoryl)phenyl)amino)pyrimidin-2-yl)amino)-3-methoxyphenyl)piperidin-4-yl)piperazin-1-yl)hept-1-yn-1-yl)-2-(2,6-dioxopiperidin-3-yl)isoindoline-1,3-dione]: the GI50 in experiment [1] is greater than 300 nM. Besides, the half-inhibitory concentration (IC50) in experiment [2] fell in the range of 1 to 100 nM.

Take `COc1cc(N2CCC(N3CCN(CCCCCC#Cc4ccc5c(c4)CN(C4CCC(=O)NC4=O)C5=O)CC3)CC2)c(C)cc1Nc1ncc(Br)c(Nc2ccc3nccnc3c2P(C)(C)=O)n1` (centres unmarked) [Compound C163, 3-(5-(7-(4-(1-(4-((5-bromo-4-((5-(dimethylphosphoryl)quinoxalin-6-yl)amino)pyrimidin-2-yl)amino)-5-methoxy-2-methylphenyl)piperidin-4-yl)piperazin-1-yl)hept-1-yn-1-yl)-1-oxoisoindolin-2-yl)piperidine-2,6-dione]: the GI50 in experiment [3] and in experiment [4] was 1 to 100 nM each time.

As for `COc1cc(N2CCC3(CCN(CCCCCCC#Cc4cccc5c4CN(C4CCC(=O)NC4=O)C5=O)CC3)CC2)c(C)cc1Nc1ncc(Br)c(Nc2ccc3nccnc3c2P(C)(C)=O)n1` (centres unmarked) [Compound C172, 3-(4-(8-(9-(4-((5-bromo-4-((5-(dimethylphosphoryl)quinoxalin-6-yl)amino)pyrimidin-2-yl)amino)-5-methoxy-2-methylphenyl)-3,9-diazaspiro[5.5]undecan-3-yl)oct-1-yn-1-yl)-1-oxoisoindolin-2-yl)piperidine-2,6-dione], the GI50 in experiment [3] and in experiment [4] was 1 to 100 nM throughout.

As to `COc1cc(N2CCC3(CCN(CCCCCCCC#Cc4cccc5c4CN(C4CCC(=O)NC4=O)C5=O)CC3)CC2)c(C)cc1Nc1ncc(Br)c(Nc2ccc3nccnc3c2P(C)(C)=O)n1` (centres unmarked) [Compound C173, 3-(4-(9-(9-(4-((5-bromo-4-((5-(dimethylphosphoryl)quinoxalin-6-yl)amino)pyrimidin-2-yl)amino)-5-methoxy-2-methylphenyl)-3,9-diazaspiro[5.5]undecan-3-yl)non-1-yn-1-yl)-1-oxoisoindolin-2-yl)piperidine-2,6-dione], the GI50 in experiment [3] and in experiment [4] was 1 to 100 nM each time.

As for `COc1cc(N2CCC(N3CCN(CCCOCC#Cc4cccc5c4CN(C4CCC(=O)NC4=O)C5=O)CC3)CC2)ccc1Nc1ncc(Cl)c(Nc2ccccc2P(C)(C)=O)n1` (centres unmarked) [Compound C181, 3-(4-(3-(3-(4-(1-(4-((5-chloro-4-((2-(dimethylphosphoryl)phenyl)amino)pyrimidin-2-yl)amino)-3-methoxyphenyl)piperidin-4-yl)piperazin-1-yl)propoxy)prop-1-yn-1-yl)-1-oxoisoindolin-2-yl)piperidine-2,6-dione], the GI50 in experiment [3] and in experiment [4] was 1 to 100 nM throughout.

On to `COc1cc(N2CCC(N3CCN(CCCCOCC#Cc4cccc5c4CN(C4CCC(=O)NC4=O)C5=O)CC3)CC2)ccc1Nc1ncc(Cl)c(Nc2ccccc2P(C)(C)=O)n1` (centres unmarked) [Compound C182, 3-(4-(3-(4-(4-(1-(4-((5-chloro-4-((2-(dimethylphosphoryl)phenyl)amino)pyrimidin-2-yl)amino)-3-methoxyphenyl)piperidin-4-yl)piperazin-1-yl)butoxy)prop-1-yn-1-yl)-1-oxoisoindolin-2-yl)piperidine-2,6-dione], for which the GI50 in experiment [3] and in experiment [4] was 1 to 100 nM in each case.

On to `COc1cc(N2CCC(N3CCN(CCOCC#Cc4cc(F)cc5c4CN(C4CCC(=O)NC4=O)C5=O)CC3)CC2)ccc1Nc1ncc(Cl)c(Nc2ccccc2P(C)(C)=O)n1` (centres unmarked) [Compound C184, 3-(4-(3-(2-(4-(1-(4-((5-chloro-4-((2-(dimethylphosphoryl)phenyl)amino)pyrimidin-2-yl)amino)-3-methoxyphenyl)piperidin-4-yl)piperazin-1-yl)ethoxy)prop-1-yn-1-yl)-6-fluoro-1-oxoisoindolin-2-yl)piperidine-2,6-dione], for which the GI50 in experiment [3] and in experiment [4] was 1 to 100 nM each time.

For the origin of these results see patent US20220306659A1, “COMPOUND INHIBITING AND INDUCING DEGRADATION OF EGFR AND ALK” (BEIJING TIDE PHARMACEUTICAL CO., LTD., priority 2019, published 2022).
